Source: patent publication US12005050B2, “Methods for preventing or treating H. pylori infection” (TENNOR THERAPEUTICS (SUZHOU) LIMITED, priority 2022, dated 2024)

Tests used:
[1] = human, in vivo
Procedure: The 40 patients were randomly allocated to four groups at a ratio of 1:1:1:1. […] The detection linear range was as below: • Compound I: Lower Limit Of Quantitation (LLOQ): 1.00 ng/mL; Upper Limit Of Quantitation (ULOQ): 1,000 ng/mL • Rabeprazole sodium: LLOQ: 2.00 ng/mL; […] […] Pharmacokinetics Evaluation Plasma drug concentrations of various groups at different time points were determined, including: arithmetic mean, standard deviation, minimum, median, maximum, geometric mean, coefficient of variation, and coefficient of geometric variation. The pharmacokinetic parameters calculated from the first and last administration were descriptively analyzed according to various trial groups, including: arithmetic mean, standard deviation, minimum value, median, maximum value, geometric mean, coefficient of variation, geometric coefficient of variation, etc. In addition, the accumulation index AUC0-tau, ss(D15)/AUC0-tau (D1) was calculated. […]

Helicobacter pylori = conditions: In China; cited from earlier work

Structure (SMILES)	Effect of amoxicillin on the major pharmacokinetic parameters of rabeprazole [1]	Resistance rate of Helicobacter pylori (Helicobacter pylori)
COCCCOc1ccnc(C[S+]([O-])c2nc3ccccc3[n-]2)c1C.[Na+] (centres unmarked) [rabeprazole, rabeprazole sodium, reference compound]	no significant effect	
Cc1ncc([N+](=O)[O-])n1CCO [metronidazole]		40-70%
